Laboratory results published in US20240390377A1, “COMPOSITION FOR THE PREVENTION OR TREATMENT OF NEURODEGENERATIVE OR MOTOR NEURON DISEASES COMPRISING HALOFUGINONE AS AN ACTIVE INGREDIENT” (CURAMYS CO., LTD., priority 2022, published 2024).

What was measured:
[1] = test system: G93A mutant SOD1 transgenic mice; test: Motor neuron cell count (ChAT) in lumbar spinal cord of ALS animal model; type: in vivo, mouse
Protocol: (§1) As a control group, non-transgenic mice were injected intraperitoneally (i.p.) with vehicle (DMSO) in the same manner for the same period of time.
Specifically, mice were sacrificed at various time points (90 days and 120 days) according to the clinical state of the mice of Example 6. Each mouse was transdermally perfused with cold 4% paraformaldehyde (PFA) following cold PBS, and lumbar spinal cord was separated. Samples were post-fixed in 4% paraformaldehyde, treated in a cold 30% sucrose solution, then freeze-protected, and then cross-sectional sections 14 μm thick were successively obtained. […] Motor neurons were quantified from ChAT-stained sections using a computer-assisted microscope (Olympus BX53) at 4× magnification, along with cellSens software. […] The fields analyzed were all ChAT+ profiles located in the ventral half of the immunostaining section clearly marked on the gray matter of each hemisphere.
(§2) In addition, to investigate the motor neuron source of the spinal cord, motor neurons of the lumbar spinal cord were observed and counted in the same manner as described in Example 9 (FIG. 9d), and real-time qRT-PCR and Western blot analysis were performed in the same manner as described in Example 11 and Example 12 to quantitatively analyze the expression of ChAT mRNA (FIG. 9e) and ChAT protein (FIG. 9f). […]

[2] = test system: G93A mutant SOD1 transgenic mice; test: Western blot analysis of lumbar spinal cord in ALS animal model; type: in vivo, mouse
Protocol: as §1
Specifically, the lumbar spinal cord or knee joint of the mouse of Example 6 was separated and immediately frozen at −80° C. Each lumbar spinal cord or knee joint was then homogenized and chemically treated to obtain cells. The chemically treated cells, the C2C12 cells of Example 1 or the fibroblasts of Example 5 were dissolved in a RIPA buffer (Thermo, MA, USA) with a protease inhibitor and a phosphatase inhibitor (Roche, IN, USA) and incubated on ice for 30 minutes. After centrifugation of the lysate at 13,000 rpm at 4° C. for 20 min, insoluble substances were removed. Protein concentrations were measured by BCA analysis (Pierce Biotechnology). Equal volumes of cell lysate were loaded onto SDS-PAGE gels for electrophoresis, and transferred onto nitrocellulose membranes (Amersham Protran 0.2 um NC, Amersham Pharmacia Biotech, Piscataway, NJ, USA). The membranes were then blocked with 5% (w/v) skimmilk in 1×TBST for 1 h at room temperature. After blocking, anti-RB-actin antibody (1:5000; Santa Cruz, cat #sc47778), anti-Smad2 antibody (1:1000; Cell Signaling, cat #5339), anti-p-Smad2 antibody (1:1000; Cell Signaling, cat #3108), anti-TGF-β1 antibody (1:1000; Santa Cruz, cat #sc130348), anti-α-SMA antibody (1:10000; abcam cat #ab7817), anti-MyoD antibody (1:1000; cat #sc377460), anti-collagen|antibody (1:1000; abcam cat #ab21286), anti-cleaved caspase-3 antibody (1:1000; Cell Signaling, cat #9661), anti-bax antibody (1:500; Santa Cruz, cat #sc493), anti-bcl2 antibody (1:1000; Novus Biologics, cat #NB100-56098), anti-ChAT antibody (1:1000; Millipore, cat #AB144) were treated and incubated overnight at 4° C. […] The membranes were then washed, briefly incubated with the SuperSignal West Pico Plus Chemical Substructure (Pierce Biotechnology) according to the manufacturer's procedure, and quantified with an image analyzer (Amersham Pharmacia Biotech, Piscataway, NJ, USA). β-actin was used as an internal control group. The concentration measurement of protein intensity was quantified using Image J (National Institutes of Health).
as §2

[3] = 120 days of age, change in DMSO TG vs DMSO Non-TG (FIG. 11b)

## O=C(C[C@H]1NCCC[C@@H]1O)Cn1cnc2cc(Br)c(Cl)cc2c1=O (racemic) [halofuginone]
[1]; 90-day-old mice (FIG. 10b)
  number of ChAT-positive motor neurons in lumbar spinal cord, compared with changes at 120 days: similar
[1]; 120-day-old mice, compared to DMSO Non-TG group (FIG. 9d)
  number of ChAT-positive motor neurons in lumbar spinal cord: preserved similarly
[2]; 120-day-old mice, compared to DMSO Non-TG group (FIG. 9f)
  ChAT expression (protein) in lumbar spinal cord: preserved similarly
[2]; [3]
  decreased protein expression of bcl-2 in lumbar spinal cord: improved
  increased protein expression of bax in lumbar spinal cord: improved
  increased protein expression of cleaved caspase-3 in lumbar spinal cord: improved
